Laboratory results taken from US20130035302A1, “USE OF […] ANALOGUES AND DERIVATIVES THEREOF FOR TREATING AND/OR PREVENTING NEURODEGENERATIVE DISEASES LINKED TO TAU AND BETA AMYLOID” (UNIVERSIDADE DE SANTIAGO DE COMPOSTELA, priority 2010, published 2013).

Assays:
[1] = Paz et al., Marine Drugs 2008; cited from earlier work
[2] = system: primary cortical cultures; assay: Cellular viability, Alamar Blue fluorescence assay; assay type: cell-based, mouse; details: primary cortical neurones, up to concentrations of 1 nM, Alamar Blue 10%
Description: (§1) In order to carry out the experiments of the present invention, either an in vitro cortical neuronal model with simultaneous overexpression of Tau and β-amyloid, obtained from a model of Alzheimer's disease in triple-transgenic (3xTg-AD or 3xTg) mice, obtainable via the detailed procedure in the international patent application WO 2003/053136 and provided by the title holders of this application, or an in vitro cortical neuronal model obtained from non-transgenic (no Tg) mice was used.
The primary cortical cultures in the present invention were obtained from 3xTg-AD mouse embryos of 15-17 days of gestation and the wild cultures were obtained from non-3xTg control mouse embryos of the same strain. The effect of the compounds used in this invention on cellular viability was estimated by a fluorescence assay using the Alamar Blue viability indicator. To carry out the assay, primary cortical cultures seeded on 96-well plates were used. The neuronal cells were incubated with yessotoxin, which was added to the culture medium at different concentrations, and the effect on in vitro neuronal viability at different treatment times was determined. The maximum concentration of yessotoxin evaluated was 1 nM and the concentration of Alamar blue was 10%.
The reaction volume used was 200 μl. Fluorescence was measured at wavelengths of 530 nm (excitation) and 590 nm (emission).

[3] = system: Tau phosphorylated on Ser202; assay: Phosphorylated Tau (Ser202), Western blot with AT8 antibody; assay type: cell-based, mouse; details: 3xTg-AD cortical cultures, 1 nM yessotoxin between days 3 and 7 of culture; *p<0.05, n=3
Description: as §1
(§2) The effect of yessotoxin on overexpression of β-amyloid and Tau hyperphosphorylation was determined by immunocytometric and Western blot techniques. Primary neuronal cultures were treated with 1 nM yessotoxin between days 3 and 7 of culture. The cells were then processed following the usual protocols for immunocytometry and Western blot. For immunocytometric and Western blot studies, protein expression was evaluated using 6E10 anti-β-amyloid primary antibodies at a dilution of 1:500, AT8 anti-Tau (Tau phosphorylated on Ser202, dilution 1:1000) and AT100 anti-Tau (Tau phosphorylated on Thr212 and Ser214, dilution 1:1000). […] Total protein concentration was determined by Bradford's method using bovine albumin as standard. […] The membranes were incubated with the primary antibodies, washed, and then incubated with a secondary antibody linked to HRP; the immunoreactivity was detected by chemiluminescence. […]

[4] = system: Tau phosphorylated on Thr212 and Ser214; assay: Phosphorylated Tau (Thr212 and Ser214), Western blot with AT100 antibody; assay type: cell-based, mouse; details: 3xTg-AD cortical cultures, 1 nM yessotoxin between days 3 and 7 of culture; n=3
Description: as §1, §2

β-amyloid = assay: Intracellular β-amyloid expression, immunocytometry with 6E10 antibody; assay type: cell-based, mouse; details: 3xTg-AD neocortical cultures, 1 nM yessotoxin between days 3 and 7 of culture; **p<0.005 vs transgenic cultures, n=3
Description: as §1, §2

Q: With yessotoxin as the substance, how does the oral toxicity [1] read?
A: does not exhibit oral toxicity

Q: What about the “effect on in vitro cell viability” value [2] of the same substance?
A: did not affect in vitro cell viability

Q: What about the “Tau phosphorylation (AT8, Ser202)” value [3] of the same substance?
A: significant reduction of Tau phosphorylation

Q: What about the “reduction of Tau phosphorylation (AT100, Thr212 and Ser214)” value [4] of the same substance?
A: 12%

Q: What about the “overexpression of β-amyloid (6E10 immunoreactivity)” value (β-amyloid) of the same substance?
A: significant reduction of overexpression of β-amyloid
